Here are results for five compounds from paper PMC11217935, “Facile Halogenation of Antimicrobial Peptides As Demonstrated by Producing Bromotryptophan-Labeled Nisin Variants with Enhanced Antimicrobial Activity” (Journal of Natural Products, 2024).

In brackets after ≈: the same amount, converted by molar mass.

In experiment [1] the test system is Lactococcus lactis MG1363. The format is cell-based. The note with it: for fold decrease in activity: L. lactis (MG1363), from MIC values, I1W compared with nisin, analogue-labelled variants by the numbers compared with Trp variant. The procedure: (§1) MIC values were determined using broth microdilution according to standard guidelines.[42] The inoculum was adjusted to approximately 5 × 10^5 CFU/mL, and the MIC was defined as the lowest concentration of antimicrobial compound with no visible growth after overnight incubation at 37 °C (or at 30 °C for L. lactis strain).

For a further experiment, the system named is B. cereus CH-85. Briefly: Time-kill assay. The note with it: within 3 h, 5 × 10^5 cells per mL, 37 °C, triplicate. The format is cell-based, Bacillus cereus. The protocol:
The antimicrobial activity of nisin and its brominated variants was evaluated against B. cereus CH-85 using a previously described procedure.[38],[41] Briefly, an overnight culture of B. cereus was diluted 50-fold in LB medium and grown at 37 °C with aeration until reaching an OD600 of 0.5, after which the cell concentration was adjusted to 5 × 10^5 cells per mL. Bacteria were then exposed to different concentrations of nisin or brominated nisin variant in culture tubes at 37 °C and 180 rpm, with untreated bacteria serving as a negative control. At desired time points, 50 μL aliquots were taken, and 10-fold serial dilutions were plated on LB agar plates. After overnight incubation at 37 °C, colonies were counted, and colony-forming units (CFU) per milliliter were calculated. Each experiment was performed in triplicate.

The nature of experiment [2]: Spot-on-lawn assay to test lipid II binding. The format is cell-based, Bacillus cereus. The note with it: B. cereus CH-85 lawn on LB agar; lipid II (600 μM, 2 μL per Figure 6; 0.8 mol/L, 2 μL per method) spotted at edge of halo; overnight 37 °C; preliminary results. The procedure: A 0.1% (v/v) inoculum of B. cereus CH-85 from an overnight culture was added to 1.5% (w/v) LB agar at 45 °C, and 10 mL of the mixture was poured onto a plate. The binding of the peptide to lipid II was evaluated by spotting purified lipid II ([…], 2 μL)[38],[41] at the edge of the 0.2 mg antibiotic inhibition halo. Specifically, 5 μL of the antibiotic was loaded onto the agar plate, and after drying, the lipid II solution was spotted at the edge of the inhibition halo. The plate was then incubated overnight at 37 °C.

A further experiment concerns Bacillus cereus CH-85. Briefly: MIC, broth microdilution. The class given is cell-based. The note with it: one of two tested pathogens (B. cereus CH-85); compared with wild-type nisin. The protocol:
as §1
(Dilution methods test growth across graded concentrations, often in twofold steps.)

In experiment [3] the test system is Staphylococcus aureus LMG15975 (MRSA). Briefly: MIC, broth microdilution. The note with it: one of two tested pathogens (S. aureus LMG15975 MRSA), WHO priority pathogen; compared with wild-type nisin. The class given is cell-based. The procedure: as §1
The test system of experiment [4] is Enterococcus faecium LMG16003 (VRE). Briefly: MIC, broth microdilution. The format is cell-based. The note with it: E. faecium; from MIC values. The protocol: as §1
The subject of experiment [5] is Staphylococcus aureus LMG10147. Briefly: MIC, broth microdilution. The class given is cell-based. The conditions noted are these: S. aureus (text: 'S. aureus' / 'one S. aureus'; by Table 2 LMG10147); from MIC values. The protocol: as §1
Experiment [6] has as its system Enterococcus faecalis LMG16216 (VRE). Briefly: MIC, broth microdilution. The format is cell-based. The note with it: E. faecalis; from MIC values. The procedure: as §1

The term MIC denotes the least concentration at which growth counts as inhibited. A low value points to inhibition by little substance. In experiment [1], `C=C(NC(=O)[C@@H](NC(=O)[C@H](Cc1c[nH]cn1)NC(=O)[C@@H](NC(=O)[C@H](CO)NC(=O)[C@@H]1CS[C@@H](C)[C@H]2NC(=O)[C@H](C)NC(=O)[C@H](NC(=O)[C@H](CCCCN)NC(=O)[C@H](CCSC)NC(=O)[C@H](CC(N)=O)NC(=O)[C@@H]3CS[C@@H](C)[C@@H](NC(=O)[C@H](CCCCN)NC(=O)[C@@H]4CS[C@@H](C)[C@@H](NC(=O)[C@@H]5CSC[C@@H](NC(=O)/C(=C/C)NC(=O)[C@@H](N)Cc6c[nH]c7ccc(Br)cc67)C(=O)N[C@@H]([C@@H](C)CC)C(=O)NC(=C)C(=O)N[C@@H](CC(C)C)C(=O)N5)C(=O)N5CCC[C@H]5C(=O)NCC(=O)N4)C(=O)NCC(=O)N[C@@H](C)C(=O)N[C@@H](CC(C)C)C(=O)N[C@@H](CCSC)C(=O)NCC(=O)N3)[C@H](C)SC[C@H](NC2=O)C(=O)N[C@@H](Cc2c[nH]cn2)C(=O)N1)[C@@H](C)CC)C(C)C)C(=O)N[C@@H](CCCCN)C(=O)O` [nisin I1W 5BrTrp] registered an MIC of 0.04 µg/mL (≈ 0.0114 µM). Besides, the “killing activity (viability of exponential culture)” value was “only slight killing” in the experiment on B. cereus CH-85 (B. cereus CH-85, 2.5 μg/mL (lowest concentration tested)) and “slower bactericidal activity than did nisin” with B. cereus CH-85 (B. cereus CH-85, 15 μg/mL). For the same compound, the “effect of externally added purified lipid II on antimicrobial activity (inhibition halo)” value in experiment [2] is “decreased the antimicrobial activity”. Further, the “fold improvement in antimicrobial activity” value (with Bacillus cereus CH-85; in experiment [3]) was 2 fold in each case.
Compound `C=C(NC(=O)[C@@H](NC(=O)[C@H](Cc1c[nH]cn1)NC(=O)[C@@H](NC(=O)[C@H](CO)NC(=O)[C@@H]1CS[C@@H](C)[C@H]2NC(=O)[C@H](C)NC(=O)[C@H](NC(=O)[C@H](CCCCN)NC(=O)[C@H](CCSC)NC(=O)[C@H](CC(N)=O)NC(=O)[C@@H]3CS[C@@H](C)[C@@H](NC(=O)[C@H](CCCCN)NC(=O)[C@@H]4CS[C@@H](C)[C@@H](NC(=O)[C@@H]5CSC[C@@H](NC(=O)/C(=C/C)NC(=O)[C@@H](N)Cc6c[nH]c7ccc(O)cc67)C(=O)N[C@@H]([C@@H](C)CC)C(=O)NC(=C)C(=O)N[C@@H](CC(C)C)C(=O)N5)C(=O)N5CCC[C@H]5C(=O)NCC(=O)N4)C(=O)NCC(=O)N[C@@H](C)C(=O)N[C@@H](CC(C)C)C(=O)N[C@@H](CCSC)C(=O)NCC(=O)N3)[C@H](C)SC[C@H](NC2=O)C(=O)N[C@@H](Cc2c[nH]cn2)C(=O)N1)[C@@H](C)CC)C(C)C)C(=O)N[C@@H](CCCCN)C(=O)O` [nisin I1W 5OHTrp] showed an MIC in experiment [1] of 0.08 µg/mL (≈ 0.0232 µM). The “fold decrease in activity” value in experiment [1], in experiment [4] and in experiment [5] was 2 fold throughout.
With `C=C(NC(=O)[C@@H](NC(=O)[C@H](Cc1c[nH]cn1)NC(=O)[C@@H](NC(=O)[C@H](CO)NC(=O)[C@@H]1CS[C@@H](C)[C@H]2NC(=O)[C@H](C)NC(=O)[C@H](NC(=O)[C@H](CCCCN)NC(=O)[C@H](CCSC)NC(=O)[C@H](CC(N)=O)NC(=O)[C@@H]3CS[C@@H](C)[C@@H](NC(=O)[C@H](CCCCN)NC(=O)[C@@H]4CS[C@@H](C)[C@@H](NC(=O)[C@@H]5CSC[C@@H](NC(=O)/C(=C/C)NC(=O)[C@@H](N)Cc6c[nH]c7cc(Br)ccc67)C(=O)N[C@@H]([C@@H](C)CC)C(=O)NC(=C)C(=O)N[C@@H](CC(C)C)C(=O)N5)C(=O)N5CCC[C@H]5C(=O)NCC(=O)N4)C(=O)NCC(=O)N[C@@H](C)C(=O)N[C@@H](CC(C)C)C(=O)N[C@@H](CCSC)C(=O)NCC(=O)N3)[C@H](C)SC[C@H](NC2=O)C(=O)N[C@@H](Cc2c[nH]cn2)C(=O)N1)[C@@H](C)CC)C(C)C)C(=O)N[C@@H](CCCCN)C(=O)O` [nisin I1W 6BrTrp], the MIC in experiment [1] worked out at 0.08 µg/mL (≈ 0.0228 µM). Further, the “fold decrease in activity” value in experiment [1], in experiment [6] and in experiment [5] was 2 fold each time.
In the case of `C=C(NC(=O)[C@@H](NC(=O)[C@H](Cc1c[nH]cn1)NC(=O)[C@@H](NC(=O)[C@H](CO)NC(=O)[C@@H]1CS[C@@H](C)[C@H]2NC(=O)[C@H](C)NC(=O)[C@H](NC(=O)[C@H](CCCCN)NC(=O)[C@H](CCSC)NC(=O)[C@H](CC(N)=O)NC(=O)[C@@H]3CS[C@@H](C)[C@@H](NC(=O)[C@H](CCCCN)NC(=O)[C@@H]4CS[C@@H](C)[C@@H](NC(=O)[C@@H]5CSC[C@@H](NC(=O)/C(=C/C)NC(=O)[C@@H](N)Cc6c[nH]c7ccccc67)C(=O)N[C@@H]([C@@H](C)CC)C(=O)NC(=C)C(=O)N[C@@H](CC(C)C)C(=O)N5)C(=O)N5CCC[C@H]5C(=O)NCC(=O)N4)C(=O)NCC(=O)N[C@@H](C)C(=O)N[C@@H](CC(C)C)C(=O)N[C@@H](CCSC)C(=O)NCC(=O)N3)[C@H](C)SC[C@H](NC2=O)C(=O)N[C@@H](Cc2c[nH]cn2)C(=O)N1)[C@@H](C)CC)C(C)C)C(=O)N[C@@H](CCCCN)C(=O)O` [nisin I1W Trp], in experiment [1], the minimal inhibitory concentration (MIC) was 0.04 µg/mL (≈ 0.0117 µM) and the “fold decrease in activity” value is recorded as 2 fold.
Take daptomycin [reference compound]: in experiment [2], the “effect of externally added purified lipid II on antimicrobial activity (inhibition halo)” value was “maintained its antimicrobial activity”.
